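48-hour exposure; five concentrations; linearly interpolated endpoints. Definition used: TGI = concentration required for complete inhibition of growth.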
Assays:
Test in all cases: NCI tumour cell line growth inhibition, 48 h
RXF 393 renal = system: RXF 393 renal
DMS 114 small cell lung = system: DMS 114 small cell lung
DU-145 prostate = system: DU-145 prostate
SR leukemia = system: SR leukemia
LXFL 529 NSCLC = system: LXFL 529 NSCLC
BT-549 breast = system: BT-549 breast
IGROV1 ovarian = system: IGROV1 ovarian
SNB-78 CNS = system: SNB-78 CNS
NCI-H226 lung = system: NCI-H226 lung
ACHN renal = system: ACHN renal
SK-OV-3 ovarian = system: SK-OV-3 ovarian
M14 melanoma = system: M14 melanoma
786-0 renal = system: 786-0 renal
U251 CNS = system: U251 CNS
HL-60(TB) leukemia = system: HL-60(TB) leukemia
OVCAR-3 ovarian = system: OVCAR-3 ovarian
HS 578T breast = system: HS 578T breast
MOLT-4 leukemia = system: MOLT-4 leukemia
UACC-257 melanoma = system: UACC-257 melanoma
HCC-2998 colon = system: HCC-2998 colon
MALME-3M melanoma = system: MALME-3M melanoma
KM12 colon = system: KM12 colon
COLO 205 colon = system: COLO 205 colon
OVCAR-4 ovarian = system: OVCAR-4 ovarian
MDA-MB-231 breast = system: MDA-MB-231 breast
SK-MEL-2 melanoma = system: SK-MEL-2 melanoma
M19-MEL melanoma = system: M19-MEL melanoma
DMS 273 small cell lung = system: DMS 273 small cell lung
HOP-92 NSCLC = system: HOP-92 NSCLC
HCT-116 colon = system: HCT-116 colon
UO-31 renal = system: UO-31 renal
TK-10 renal = system: TK-10 renal
SF-539 CNS = system: SF-539 CNS
MDA-MB-435 = system: MDA-MB-435
SNB-75 CNS = system: SNB-75 CNS
SF-295 CNS = system: SF-295 CNS
SW-620 colon = system: SW-620 colon
XF 498 CNS = system: XF 498 CNS
HOP-62 NSCLC = system: HOP-62 NSCLC
CAKI-1 renal = system: CAKI-1 renal
HCT-15 colon = system: HCT-15 colon
RPMI-8226 leukemia = system: RPMI-8226 leukemia
SK-MEL-28 melanoma = system: SK-MEL-28 melanoma
MCF7 breast = system: MCF7 breast
UACC-62 melanoma = system: UACC-62 melanoma
NCI/ADR-RES ovarian = system: NCI/ADR-RES ovarian
SF-268 CNS = system: SF-268 CNS
PC-3 prostate = system: PC-3 prostate
NCI-H522 lung = system: NCI-H522 lung
EKVX NSCLC = system: EKVX NSCLC
OVCAR-5 ovarian = system: OVCAR-5 ovarian
A549 NSCLC = system: A549 NSCLC
LOX IMVI melanoma = system: LOX IMVI melanoma
CCRF-CEM leukemia = system: CCRF-CEM leukemia
NCI-H460 lung = system: NCI-H460 lung
SK-MEL-5 melanoma = system: SK-MEL-5 melanoma
K-562 leukemia = system: K-562 leukemia
DLD-1 colon = system: DLD-1 colon
KM20L2 colon = system: KM20L2 colon
RXF-631 renal = system: RXF-631 renal
MDA-N = system: MDA-N
OVCAR-8 ovarian = system: OVCAR-8 ovarian
A498 renal = system: A498 renal
SNB-19 CNS = system: SNB-19 CNS
T-47D breast = system: T-47D breast
NCI-H23 lung = system: NCI-H23 lung
SN12C renal = system: SN12C renal
HT29 colon = system: HT29 colon

O=C(O)C(C(=O)O)P(=S)(S)c1ccccc1 (stereo not drawn)
TGI (RXF 393 renal): > 100 µM | TGI (DMS 114 small cell lung): > 100 µM | TGI (DU-145 prostate): > 100 µM | TGI (SR leukemia): > 100 µM | TGI (LXFL 529 NSCLC): > 100 µM | TGI (BT-549 breast): > 100 µM | TGI (IGROV1 ovarian): > 100 µM | TGI (SNB-78 CNS): > 100 µM | TGI (NCI-H226 lung): > 100 µM | TGI (ACHN renal): > 100 µM | TGI (SK-OV-3 ovarian): > 100 µM | TGI (M14 melanoma): > 100 µM | TGI (786-0 renal): > 100 µM | TGI (U251 CNS): > 100 µM | TGI (HL-60(TB) leukemia): > 100 µM | TGI (OVCAR-3 ovarian): > 100 µM | TGI (HS 578T breast): > 100 µM | TGI (MOLT-4 leukemia): > 100 µM | TGI (UACC-257 melanoma): > 100 µM | TGI (HCC-2998 colon): > 100 µM | TGI (MALME-3M melanoma): > 100 µM | TGI (KM12 colon): > 100 µM | TGI (COLO 205 colon): > 100 µM | TGI (OVCAR-4 ovarian): > 100 µM | TGI (MDA-MB-231 breast): > 100 µM | TGI (SK-MEL-2 melanoma): > 100 µM | TGI (M19-MEL melanoma): > 100 µM | TGI (DMS 273 small cell lung): > 100 µM | TGI (HOP-92 NSCLC): > 100 µM | TGI (HCT-116 colon): > 100 µM | TGI (UO-31 renal): > 100 µM | TGI (TK-10 renal): > 100 µM | TGI (SF-539 CNS): > 100 µM | TGI (MDA-MB-435): > 100 µM | TGI (SNB-75 CNS): > 100 µM | TGI (SF-295 CNS): > 100 µM | TGI (SW-620 colon): > 100 µM | TGI (XF 498 CNS): > 100 µM | TGI (HOP-62 NSCLC): > 100 µM | TGI (CAKI-1 renal): > 100 µM | TGI (HCT-15 colon): > 100 µM | TGI (RPMI-8226 leukemia): > 100 µM | TGI (SK-MEL-28 melanoma): > 100 µM | TGI (MCF7 breast): > 100 µM | TGI (UACC-62 melanoma): > 100 µM | TGI (NCI/ADR-RES ovarian): > 100 µM | TGI (SF-268 CNS): > 100 µM | TGI (PC-3 prostate): > 100 µM | TGI (NCI-H522 lung): > 100 µM | TGI (EKVX NSCLC): > 100 µM | TGI (OVCAR-5 ovarian): > 100 µM | TGI (A549 NSCLC): > 100 µM | TGI (LOX IMVI melanoma): > 100 µM | TGI (CCRF-CEM leukemia): > 100 µM | TGI (NCI-H460 lung): > 100 µM | TGI (SK-MEL-5 melanoma): > 31.6 µM | TGI (K-562 leukemia): > 100 µM | TGI (DLD-1 colon): > 100 µM | TGI (KM20L2 colon): > 100 µM | TGI (RXF-631 renal): > 100 µM | TGI (MDA-N): > 100 µM | TGI (OVCAR-8 ovarian): > 100 µM | TGI (A498 renal): > 100 µM | TGI (SNB-19 CNS): > 100 µM | TGI (T-47D breast): > 100 µM | TGI (NCI-H23 lung): > 100 µM | TGI (SN12C renal): > 100 µM | TGI (HT29 colon): > 100 µM

Source: PubChem BioAssay (NCI)
